Here are results for 61 compounds from ChEMBL document CHEMBL1201862, “PubChem BioAssay data set” (2004).

Data set [1] deals with T1, Heat shock factor protein 1 (Mus musculus, UniProt P38532).
T1 sequence (P38532 whole entry): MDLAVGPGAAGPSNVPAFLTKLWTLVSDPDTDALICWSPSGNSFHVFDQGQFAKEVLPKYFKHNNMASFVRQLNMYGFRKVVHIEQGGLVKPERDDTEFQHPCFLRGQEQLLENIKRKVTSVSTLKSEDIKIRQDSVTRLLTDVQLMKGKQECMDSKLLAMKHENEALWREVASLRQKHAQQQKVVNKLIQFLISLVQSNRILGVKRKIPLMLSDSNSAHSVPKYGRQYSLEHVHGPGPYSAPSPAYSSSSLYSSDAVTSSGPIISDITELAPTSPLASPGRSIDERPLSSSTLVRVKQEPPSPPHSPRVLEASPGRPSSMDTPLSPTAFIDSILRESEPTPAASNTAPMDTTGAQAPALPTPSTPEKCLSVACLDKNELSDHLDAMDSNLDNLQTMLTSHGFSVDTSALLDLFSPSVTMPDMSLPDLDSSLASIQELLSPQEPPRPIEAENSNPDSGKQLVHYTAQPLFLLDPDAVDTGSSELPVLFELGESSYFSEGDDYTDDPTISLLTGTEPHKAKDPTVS
As to the kind of experiment: decrease of HSF1-responsive luciferase luminescence – cell-based, NIH3T3, dose retest, confirmation (AID 2382).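 Further: NIH3T3 fibroblasts with HSF1-driven luciferase reporter stressed by proteasome inhibitor MG132; luminescence from HSF1-driven luciferase expression after 8 hours of MG132 stress.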 Format: functional.

Data set [2] in a line: Trypanosoma cruzi growth suppression in host cells – NIH3T3 host cells, beta-gal luminescence, confirmation (AID 2044).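 Further: intracellular parasites grown in NIH/3T3 mouse fibroblasts as host cells; luminescent beta-galactosidase reporter signal from transgenic T. cruzi replicating inside host cells; inhibitors lower the luminescence signal.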 Format: functional, cell-based.
A short description of data set [3]: NIH3T3 cell viability loss – ATP luminescence, mouse fibroblasts, counter-screen, dose response (AID 2010).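 Further: cells exposed to compound for about 90 hours before reading.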 The format is functional, cell-based. A general note: A counterscreen serves to expose hits that act by an unwanted route or on another target.
In the next data set the target is Cytochrome P450 2C9 (Homo sapiens, UniProt P11712).
The target of another data set is Cytochrome P450 3A4 (Homo sapiens, UniProt P08684).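 Further: CYP3A4 tested as one member of a cytochrome P450 panel screen.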
In another data set the target is Cytochrome P450 2C19 (Homo sapiens, UniProt P33261). As to the kind of experiment: Cytochrome panel assay with activity outcomes. Panel member name: p450-cyp2c19 Compounds with AC50 equal or less than 10 uM are considered active. Format: functional.

Active and inactive are the calls of the source. Bounds are passed on as bounds.

What is called EC50 is the concentration at which the effect is half-maximal. The AC50 is the concentration at which the activity in the assay is half-maximal.

Sequence of Cytochrome P450 2C19 (P33261 whole entry): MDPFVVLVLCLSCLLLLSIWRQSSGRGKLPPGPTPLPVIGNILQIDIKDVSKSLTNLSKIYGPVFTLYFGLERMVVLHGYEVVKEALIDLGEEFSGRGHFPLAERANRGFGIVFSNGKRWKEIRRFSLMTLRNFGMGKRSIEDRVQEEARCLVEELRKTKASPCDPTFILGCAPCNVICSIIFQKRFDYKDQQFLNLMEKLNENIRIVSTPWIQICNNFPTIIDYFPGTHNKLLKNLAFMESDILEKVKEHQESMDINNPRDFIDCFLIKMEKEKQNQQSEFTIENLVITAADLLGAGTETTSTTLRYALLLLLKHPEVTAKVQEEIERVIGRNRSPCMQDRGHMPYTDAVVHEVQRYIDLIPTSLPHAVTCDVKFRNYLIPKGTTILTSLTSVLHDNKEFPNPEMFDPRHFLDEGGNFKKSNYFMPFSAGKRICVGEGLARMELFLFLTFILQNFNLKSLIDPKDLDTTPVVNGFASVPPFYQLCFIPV
Sequence of Cytochrome P450 3A4 (P08684 whole entry): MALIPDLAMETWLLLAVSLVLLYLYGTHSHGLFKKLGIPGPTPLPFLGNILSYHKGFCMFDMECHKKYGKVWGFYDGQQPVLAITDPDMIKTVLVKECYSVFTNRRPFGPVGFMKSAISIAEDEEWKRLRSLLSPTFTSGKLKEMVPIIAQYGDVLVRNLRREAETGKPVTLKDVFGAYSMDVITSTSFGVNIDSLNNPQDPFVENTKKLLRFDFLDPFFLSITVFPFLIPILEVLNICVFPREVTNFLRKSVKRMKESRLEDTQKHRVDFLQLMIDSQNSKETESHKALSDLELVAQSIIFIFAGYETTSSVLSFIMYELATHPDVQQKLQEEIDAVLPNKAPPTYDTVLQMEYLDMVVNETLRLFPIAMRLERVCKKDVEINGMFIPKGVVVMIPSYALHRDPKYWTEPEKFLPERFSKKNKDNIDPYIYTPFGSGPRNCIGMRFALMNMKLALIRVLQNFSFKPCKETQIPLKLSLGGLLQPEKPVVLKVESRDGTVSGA
Sequence of Cytochrome P450 2C9 (P11712 whole entry): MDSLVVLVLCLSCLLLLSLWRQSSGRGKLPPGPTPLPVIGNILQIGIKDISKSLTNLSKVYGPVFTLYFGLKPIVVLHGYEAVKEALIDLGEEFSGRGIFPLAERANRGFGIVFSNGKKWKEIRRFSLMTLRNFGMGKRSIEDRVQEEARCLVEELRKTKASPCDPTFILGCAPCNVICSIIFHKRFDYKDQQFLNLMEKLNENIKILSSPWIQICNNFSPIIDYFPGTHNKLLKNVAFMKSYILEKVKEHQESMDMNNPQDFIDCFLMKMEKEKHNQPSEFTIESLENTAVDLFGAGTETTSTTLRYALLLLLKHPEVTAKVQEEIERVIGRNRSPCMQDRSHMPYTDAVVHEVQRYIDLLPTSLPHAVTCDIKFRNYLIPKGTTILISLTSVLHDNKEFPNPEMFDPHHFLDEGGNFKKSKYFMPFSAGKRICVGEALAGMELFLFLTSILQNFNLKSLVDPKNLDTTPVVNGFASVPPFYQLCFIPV

As to `O=C(Nc1cccnc1)c1noc2c1CCCCC2`, the EC50 in data set [1] was 0.288 µM (active).

For the compound `CCCn1c(NC(=O)c2ccc(F)cc2)nc2ccccc21`, the EC50 in data set [2] is 3 µM (active); in data set [3] it was > 60 µM (not active).

Take `Nc1ccccc1S[C@@H](C[N+](=O)[O-])c1ccc2c(c1)OCO2`: the AC50 at Cytochrome P450 2C9 is 6.31 µM (inconclusive); at Cytochrome P450 3A4, 2.51 µM (inconclusive).

Consider `O=C(COC(=O)c1cnccn1)Nc1ccc(Cl)cn1`, for which, in data set [1], the concentration giving a half-maximal response (EC50) is reported as > 195 µM (not active).

On to `O[C@@H](COc1cccc2ccccc12)CN1CCOCC1`, for which, on Cytochrome P450 2C19 (read-out: AC50), the AC50 is 0.0501 µM (inconclusive).

For `O=C(NCCc1ccccn1)c1cc(C(=O)C2CCCCC2)c[nH]1`, the AC50 on Cytochrome P450 2C9 was 0.158 µM (inconclusive).

As to `O=C(C1=C[C@H](c2csc3ccccc23)C[C@H](OCc2ccc(CO)cc2)O1)N1CCN(Cc2ccc3c(c2)OCO3)CC1`, the EC50 is 0.137 µM (active) in data set [2] and > 60 µM (not active) in data set [3].

For the compound `Cc1oc(-c2ccccc2F)nc1C[S+]([O-])CC(=O)N1CCC2(CC1)OCCO2` (stereo not given), on Cytochrome P450 2C9, the AC50 is 20 µM (inconclusive).

Consider `Cn1c(SC2CCCCC2=O)nnc1-c1ccncc1` (stereo not given), for which, on Cytochrome P450 3A4, the AC50 was 25.1 µM (inconclusive).

On to `COc1ccccc1CN(C)C(=O)C1COc2ccccc2O1` (stereo not given), for which, in data set [1], the EC50 was > 195 µM (not active).

`CN1CCN(c2ccc(S(=O)(=O)N3CCCCC3)cc2NC(=O)CSCc2ccccc2)CC1`: the EC50 was 0.315 µM (active) in data set [2] and > 60 µM (not active) in data set [3].

With `Cc1ccc(C(=O)Nc2ccccc2C(=O)O)cc1S(=O)(=O)NCc1ccccc1`, in data set [1], the EC50 is on record as > 195 µM (not active).

Consider `CCCc1cc2c(n1CCO)C(C)C1CN(C(=O)c3ccccc3)C(C)(C(=O)OC)C21` (stereo not given), for which the AC50 on Cytochrome P450 2C19 (read-out: AC50) was 3.16 µM (inconclusive).

With `CCN(CC)C(=O)CSc1nnc(CNc2ccc(F)cc2)o1`, the AC50 at Cytochrome P450 3A4 was 25.1 µM (inconclusive); on Cytochrome P450 2C19 (read-out: AC50), 22.4 µM (inconclusive).

Regarding `COc1ccccc1CN1CCCC(N2CCN(c3ccc(F)cc3)CC2)C1` (stereo not given), the EC50 in data set [2] is 0.253 µM (active); in data set [3], 10.1 µM (active).

As for `CC(=O)Nc1ccc(OS(=O)(=O)c2ccccc2C)cc1`, the EC50 in data set [1] is > 195 µM (not active).

`CN(C)c1ncc(CN2CCC(CO)(CCCc3ccccc3)CC2)s1`: the figures for the EC50 in data set [2] and in data set [3] were 0.996 µM (active) and > 60 µM (not active), respectively.

As to `O=C(c1cnccn1)N1CCC2(CCCN(c3ccccc3)C2)CC1`, the half-maximal activity concentration (AC50) at Cytochrome P450 2C9 is 39.8 µM (inconclusive).

In the case of `N#CC(C#N)=C(N)/C(C#N)=C/c1ccc(O)cc1`, the AC50 on Cytochrome P450 3A4 is 39.8 µM (inconclusive).

For the compound `CCCCCCN1CC(=O)N2[C@@H](Cc3c([nH]c4ccccc34)C2(C)C)C1=O`, the EC50 in data set [1] is > 195 µM (not active).

For the compound `Cc1ccc(C(=N)NOC(=O)Cc2cccs2)cc1`, on Cytochrome P450 3A4, the AC50 was 28.2 µM (inconclusive).

Consider `Cc1c(C)n(CCCN(C)C)c2ncnc(NC3CCCCC3)c12`, for which the EC50 is 0.603 µM (active) in data set [2] and > 60 µM (not active) in data set [3].

On to `CC(=O)OCC1=C(C(=O)O)N2C(=O)[C@@H](NC(=O)CCC[C@@H](N)C(=O)O)[C@@H]2SC1`, for which the half-maximal activity concentration (AC50) on Cytochrome P450 2C9 is 39.8 µM (inconclusive).

Regarding `Clc1ccc(OCCn2ccnc2)cc1Cl`, the EC50 is 2.49 µM (active) in data set [2] and > 60 µM (not active) in data set [3].

Take `CCNc1ncc2nc(CCc3ccccc3)c(=O)n(C3CC3)c2n1`: the AC50 on Cytochrome P450 2C9 was 3.98 µM (inconclusive).

Consider `CCOc1ccc(OCC)c(NC(=O)C2CCCN(S(=O)(=O)c3cccs3)C2)c1` (stereo not given), for which the figures for the AC50 at Cytochrome P450 2C9 and on Cytochrome P450 2C19 (read-out: AC50) were 2.51 µM (inconclusive) and 2.82 µM (inconclusive), respectively.

On to `COc1ccccc1CN1CCN(Cc2nc(Cc3ccccc3)no2)CC1`, for which the EC50 in data set [2] was 0.754 µM (active); in data set [3] it was > 30 µM (not active).

Consider `COc1ccc(/C=C/C(=O)Oc2ccc(/C=N/NC(=O)COc3c(C)cccc3C)cc2)cc1`, for which the half-maximal effective concentration (EC50) in data set [1] is recorded as > 195 µM (not active).

Take `CCc1ccc(NC(=O)CSc2ccc(-c3cccnc3)nn2)cc1`: the EC50 in data set [1] is recorded as > 195 µM (not active).

For `CC(=O)O[C@H]1C2=CO[C@H](C)[C@H]3C4C5=C([C@@H](O[C@H]4C)[C@@]23C(=O)[C@H]2O[C@@H]21)[C@H](O)[C@H]1O[C@@H]1C5=O`, at Cytochrome P450 3A4, the AC50 is 3.98 µM (inconclusive).

On to `COc1ccc2nc3c(O)n(CCCN4CCOCC4)cnc-3c2c1`, for which the EC50 in data set [1] is > 195 µM (not active).

On to `CCOC(=O)c1cncc(C(=O)O)c1`, for which the half-maximal activity concentration (AC50) at Cytochrome P450 2C19 (read-out: AC50) is 31.6 µM (inconclusive).

Regarding `CCN1CCCc2cc(CN(CCN3CCOCC3)C(S)=Nc3ccccc3OC)ccc21`, the EC50 was 1.53 µM (active) in data set [2] and > 60 µM (not active) in data set [3].

For `Cn1c(=O)c(-c2ccccc2)nc2cnc(N3CCNCC3)nc21`, the AC50 at Cytochrome P450 2C9 is 15.8 µM (inconclusive); at Cytochrome P450 2C19 (read-out: AC50), 39.8 µM (inconclusive).

For `Cc1ccc(CNC(=O)C2CCCN2C(=O)NCc2ccccc2)cc1` (stereo not given), the AC50 on Cytochrome P450 2C9 was 11.2 µM (inconclusive).

Take `O=C(NCC1CCCN(Cc2ccccc2F)C1)c1cccc(C(F)(F)F)c1` (stereo not given): the EC50 in data set [2] was 0.975 µM (active); in data set [3], > 60 µM (not active).

On to `COc1ccc(NC(=O)Cn2c(=O)n(Cc3ccco3)c(=O)c3ccccc32)cc1`, for which the EC50 in data set [1] is recorded as > 195 µM (not active).

Regarding `CC(C)NC(=O)N1CC[C@@]2(CCCN(C(=O)c3csnn3)C2)C1`, on Cytochrome P450 3A4, the AC50 was 15.8 µM (inconclusive).

Consider `N#Cc1ccccc1NC(=O)c1ccccc1OCC(=O)Nc1ccc2c(c1)oc1ccccc12`, for which the results for the EC50 in data set [2] and in data set [3] were 2.85 µM (active) and 47.3 µM (active), respectively.

With `CCN(CC)C(=O)C1CCCN(c2ccc([N+](=O)[O-])cc2/C=N/NC(=O)c2ccc([N+](=O)[O-])cc2)C1` (stereo not given), on Cytochrome P450 3A4, the AC50 is 2.82 µM (inconclusive). In addition, the EC50 in data set [1] is > 195 µM (not active).

In the case of `CCOC(=O)c1ccc(S(=O)(=O)N2CCN(C)CC2)cc1`, on Cytochrome P450 2C9, the AC50 was 39.8 µM (inconclusive).

As to `COCCN(C(=O)COC(=O)/C=C/c1ccc(C(F)(F)F)cc1)c1c(N)n(Cc2ccccc2)c(=O)[nH]c1=O`, in data set [1], the EC50 is reported as > 195 µM (not active).

`COn1c(-c2ccccc2)nc2c1CCc1nonc1-2`: the AC50 at Cytochrome P450 2C9 was 25.1 µM (inconclusive); at Cytochrome P450 3A4, 31.6 µM (inconclusive).

For the compound `N#CC1=C(N)N(c2ccc(Oc3ccccc3)cc2)C(=O)C1`, the EC50 in data set [1] is recorded as > 195 µM (not active).

For `CC(=O)SCC[N+](C)(C)C` [ACETYLTHIOCHOLINE], the AC50 entry at Cytochrome P450 2C19 was “inconclusive”.

Consider `COCCn1c(=O)c(-c2ccc(OC)cc2)nc2cnc(OCc3ccccc3)nc21`, for which, on Cytochrome P450 3A4, the AC50 is 25.1 µM (inconclusive).

On to `COc1ccccc1NC(=O)C1CCN(C(=O)C2CC(=O)N(c3ccc(C)cc3)C2)CC1` (stereo not given), for which, in data set [1], the EC50 is > 195 µM (not active).

Regarding `COc1cccc(-c2csc(N3CCN(C(=S)Nc4ccccc4)CC3)n2)c1`, the AC50 on Cytochrome P450 2C9 is 0.158 µM (inconclusive).

With `O=S(=O)(NCCCCCCc1ccccc1)c1cccc2c(Cl)cccc12`, at Cytochrome P450 2C9, the AC50 was 5.01 µM (inconclusive).

With `CCN(CC)C(=O)C1CCCN(Cc2ccc(N(C)C)cc2)C1` (stereo not given), the figures for the EC50 in data set [2] and in data set [3] were 0.296 µM (active) and > 60 µM (not active), respectively.

`COc1ccc2[nH]cc(CCNc3ccnc(-c4cccc(NS(C)(=O)=O)c4)n3)c2c1`: the half-maximal activity concentration (AC50) is 0.126 µM (inconclusive) on Cytochrome P450 2C9 and 2.51 µM (inconclusive) at Cytochrome P450 3A4.

Regarding `O=S(=O)(NCc1ccc(C(F)(F)F)cc1)c1ccc(-n2cnnn2)cc1`, the EC50 in data set [1] is > 195 µM (not active).

In the case of `Cc1cc([N+](=O)[O-])nn1CC(=O)NCc1nc2ccccc2[nH]1`, in data set [1], the EC50 is listed as > 195 µM (not active).

With `Cc1nc(N=C(N)NS(=O)(=O)c2ccc([N+](=O)[O-])cc2)nc2ccccc12`, the values for the EC50 in data set [2] and in data set [3] were 0.452 µM (active) and 24.6 µM (active), respectively.

Regarding `O=C(c1ccco1)N1CCN(S(=O)(=O)/C=C/c2ccccc2)CC1`, the EC50 in data set [1] was > 195 µM (not active).

As for `CN1CCN(NC(=O)c2cc([N+](=O)[O-])cc([N+](=O)[O-])c2)CC1`, the EC50 is 2.33 µM (active) in data set [2] and > 30 µM (not active) in data set [3].

As for `CCOP(=O)(OCC)C(NC(=O)C(Cl)Cl)C(Cl)(Cl)Cl` (stereo not given), the AC50 was 39.8 µM (inconclusive) on Cytochrome P450 2C9 and 31.6 µM (inconclusive) on Cytochrome P450 3A4.

`COc1ccc(CCNC(=O)C2CCN(S(=O)(=O)N3CC(C)CC(C)C3)CC2)cc1OC` (stereo not given): the AC50 at Cytochrome P450 2C9 was 22.4 µM (inconclusive).

For the compound `CCOc1ccccc1CN1CCN(Cc2nc3ccccc3s2)CC1CCO` (stereo not given), the EC50 is 1.16 µM (active) in data set [2] and > 60 µM (not active) in data set [3].

Consider `Sc1c2ncnc-2ncn1CCSc1[nH]cnc2ncnc1-2`, for which the half-maximal activity concentration (AC50) result at Cytochrome P450 2C19 was “inconclusive”.

Regarding `O=C(CCN1CCN(C/C=C/c2ccccc2)CC1)Nc1ccccc1`, the 50% effective concentration (EC50) in data set [2] is 1.95 µM (active); in data set [3] it was > 60 µM (not active).
